# From ChEMBL document CHEMBL4118108, “UNC-51-like Kinase 1: From an Autophagic Initiator to Multifunctional Drug Target” (J Med Chem, 2018)
# Assays:
# [1] = target: T1, Serine/threonine-protein kinase ULK2 (Homo sapiens, UniProt Q8IYT8); assay: Inhibition of GST-tagged ULK2 (unknown origin)
# T1 sequence (Q8IYT8 whole entry): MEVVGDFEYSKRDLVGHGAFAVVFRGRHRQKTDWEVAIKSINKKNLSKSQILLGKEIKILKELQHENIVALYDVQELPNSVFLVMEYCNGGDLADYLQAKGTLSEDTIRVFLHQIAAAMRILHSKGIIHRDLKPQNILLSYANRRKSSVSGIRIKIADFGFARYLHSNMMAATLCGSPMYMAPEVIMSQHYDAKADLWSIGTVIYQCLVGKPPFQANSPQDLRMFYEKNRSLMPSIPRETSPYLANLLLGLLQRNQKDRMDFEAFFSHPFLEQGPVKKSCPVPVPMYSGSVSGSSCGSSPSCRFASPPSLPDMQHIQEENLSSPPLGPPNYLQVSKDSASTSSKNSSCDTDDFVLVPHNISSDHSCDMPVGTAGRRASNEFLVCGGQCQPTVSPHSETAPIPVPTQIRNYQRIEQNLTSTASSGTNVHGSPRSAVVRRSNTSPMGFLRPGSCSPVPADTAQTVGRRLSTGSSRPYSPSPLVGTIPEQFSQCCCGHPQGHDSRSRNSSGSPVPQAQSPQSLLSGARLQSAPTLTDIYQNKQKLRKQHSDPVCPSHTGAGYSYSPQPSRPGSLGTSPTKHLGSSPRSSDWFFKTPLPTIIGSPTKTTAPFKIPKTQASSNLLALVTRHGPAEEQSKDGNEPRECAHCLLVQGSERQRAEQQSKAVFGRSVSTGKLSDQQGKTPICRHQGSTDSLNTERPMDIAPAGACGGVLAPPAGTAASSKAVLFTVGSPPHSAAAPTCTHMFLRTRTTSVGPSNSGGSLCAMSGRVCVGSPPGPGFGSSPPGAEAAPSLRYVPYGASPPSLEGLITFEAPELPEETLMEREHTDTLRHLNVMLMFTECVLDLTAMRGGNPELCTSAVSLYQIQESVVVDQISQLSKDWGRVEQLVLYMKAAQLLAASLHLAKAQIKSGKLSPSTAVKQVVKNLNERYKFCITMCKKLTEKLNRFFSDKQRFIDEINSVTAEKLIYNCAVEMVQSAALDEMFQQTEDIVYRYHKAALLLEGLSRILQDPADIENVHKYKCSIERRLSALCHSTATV
# MDA-MB-231 = assay: Antiproliferative activity against human MDA-MB-231 cells by MTT assay; format: functional, cell-based
Compound,IC50 [1] [nM],IC50 (MDA-MB-231) [nM]
CNC(=O)c1ccccc1Oc1nc(Nc2cc(OC)c(OC)c(OC)c2)ncc1Br,711,
CC(C)CN(CC(=O)N1CCN(CC(OCc2ccc3ccccc3c2)c2ccc(Cl)cc2Cl)CC1)CC(C)C (configuration not stated),,1660
